The source made the active and inactive calls. The rule behind the calls is not given here.
How the values were obtained:
[1] = system: Staphylococcus aureus; test: Antibacterial activity against Staphylococcus aureus; format: functional, organism-based
[2] = system: Escherichia coli; test: Antibacterial activity against Escherichia coli K-12; format: functional, organism-based
[3] = system: Bacillus subtilis; test: Antibacterial activity against Bacillus subtilis assessed as growth inhibition by microtiter plate-based MIC test

MIC [3]: 25 µg/mL
SMILES: CC(C)=CCc1cccc2c1NC(=O)C2=O
Activity [1]: inactive | Activity [2]: inactive

Source: ChEMBL document CHEMBL3734727, “Metabolomics-Driven Discovery of a Prenylated Isatin Antibiotic Produced by Streptomyces Species MBT28” (2015)
